We go through ten substances from patent publication US6846921B2, “Chimeric antisense oligonucleotides and cell transfecting formulations thereof” (Chiron Corporation, priority 1999, dated 2005).

{5'-OMe-dT} = O-methyl thymidine blocking nucleotide (W), phosphodiester-linked; {3'-3'N} = to-3' linked nucleotide blocking group (Z), phosphodiester-linked; d = 2'-deoxy (DNA); m = 2'-O-methyl

In one data set the test system is AKT2 mRNA. In words: AKT2 mRNA knockout after transfection of chimeric antisense oligonucleotide. It is filed as cell-based, human. The conditions noted are these: HT1080 cells, Lipitoid 1 for transfection, incubated 24 hours, approximate level. The method, then: (§1) With the exception of the mTyr oligo (SEQ ID NO: 17-18), which was transfected into B16 melanoma cells, all oligos shown in Table 1 were transfected into HT1080 cells, using “Lipitoid 1” (see below) for transfection, and incubated for 24 hours. The table gives the approximate level of mRNA knockout observed in each case.
(§2) For each transfection mixture, a carrier molecule, preferably a lipitoid or cholesteroid, was prepared to a working concentration of 0.5 mM in water, sonicated to yield a uniform solution, and filtered through a 0.45 μm PVDF membrane. The antisense oligonucleotide was prepared to a working concentration of 100 μM in sterile Millipore water. […]
(§3) The level of target mRNA was quantitated using the Roche LightCycler™ real-time PCR machine. […]
(§4) An amplification mixture was prepared by mixing in the following order: 1×PCR buffer II, 3 mM MgCl2, 140 μM each dNTP, 0.175 pmol each oligo, 1:50,000 dil of SYBR® Green, 0.25 mg/ml BSA, 1 unit Taq polymerase, and H2O to 20 μl. (PCR buffer II is available in 10×concentration from Perkin-Elmer (Norwalk, Conn.). In 1×concentration it contains 10 mM Tris pH 8.3 and 50 mM KCl. SYBR® Green (Molecular Probes, Eugene, Oreg.) is a dye which fluoresces when bound to double stranded DNA. As double stranded PCR product is produced during amplification, the fluorescence from SYBR® Green increases.) […]

A further data set deals with CHK2 mRNA. In words: CHK2 mRNA knockout after transfection of chimeric antisense oligonucleotide. The settings on record: HT1080 cells, Lipitoid 1 for transfection, incubated 24 hours, approximate level. Format: cell-based, human. The method, then: as §1, §2, §3, §4
The next data set relates to KRAS mRNA. In words: KRAS mRNA knockout after transfection of chimeric antisense oligonucleotide. Format: cell-based, human. The settings on record: HT1080 cells, Lipitoid 1 for transfection, incubated 24 hours, approximate level. Here is the method: as §1, §2, §3, §4
Another data set has as its system MMP2 mRNA. In words: MMP2 mRNA knockout after transfection of chimeric antisense oligonucleotide. The conditions noted are these: HT1080 cells, Lipitoid 1 for transfection, incubated 24 hours, approximate level. It is filed as cell-based, human. The method, then:
as §1, §2, §3, §4

Another data set deals with MMP9 mRNA. In words: MMP9 mRNA knockout after transfection of chimeric antisense oligonucleotide. The settings on record: HT1080 cells, Lipitoid 1 for transfection, incubated 24 hours, approximate level. It is filed as cell-based, human. Here is the method:
as §1, §2, §3, §4

Another data set deals with mTyr mRNA. In words: mTyr mRNA knockout after transfection into B16 melanoma cells. It is filed as cell-based. The settings on record: approximate level. The method, then: as §1, §2, §3, §4
The test system of the next data set is p110α mRNA. The data set is described as follows: p110α mRNA knockout after transfection of chimeric antisense oligonucleotide. Format: cell-based, human. The settings on record: HT1080 cells, Lipitoid 1 for transfection, incubated 24 hours, approximate level. The method, then:
as §1, §2, §3, §4

The next data set concerns p110β mRNA. The data set is described as follows: p110β mRNA knockout after transfection of chimeric antisense oligonucleotide. Format: cell-based, human. The conditions noted are these: HT1080 cells, Lipitoid 1 for transfection, incubated 24 hours, approximate level. Here is the method: as §1, §2, §3, §4
A further data set deals with PDK1 mRNA. The data set is described as follows: PDK1 mRNA knockout after transfection of chimeric antisense oligonucleotide. The conditions noted are these: HT1080 cells, Lipitoid 1 for transfection, incubated 24 hours, approximate level. Format: cell-based, human. The method, then: as §1, §2, §3, §4
Another data set concerns UPAR mRNA. In words: UPAR mRNA knockout after transfection of chimeric antisense oligonucleotide. It is filed as cell-based, human. The conditions noted are these: HT1080 cells, Lipitoid 1 for transfection, incubated 24 hours, approximate level. Here is the method:
as §1, §2, §3, §4

On to “2 (GTTCCCTTGCCAAGGAGTTTGAGAT; antisense; sugars from the 5' end m7 d11 m7, 5' {5'-OMe-dT}, 3' {3'-3'N}, backbone and T or U not given here; 2'-OMe blocks are phosphodiester, DNA gap is phosphorothioate) [compound 2]”, for which the mRNA knockout in the data set with AKT2 mRNA is >85%.

Turning to “4 (GACCCACTTCCCTGAAAATCCGAAA; antisense; sugars from the 5' end m7 d11 m7, 5' {5'-OMe-dT}, 3' {3'-3'N}, backbone and T or U not given here; 2'-OMe blocks are phosphodiester, DNA gap is phosphorothioate) [compound 4]”, the mRNA knockout in the data set with CHK2 mRNA is on record as >90%.

Turning to “12 (GCATGTGGAAGGTAGGGAGGCAAGA; antisense; sugars from the 5' end m7 d11 m7, 5' {5'-OMe-dT}, 3' {3'-3'N}, backbone and T or U not given here; 2'-OMe blocks are phosphodiester, DNA gap is phosphorothioate) [compound 12]”, the mRNA knockout with KRAS mRNA is recorded as >85%.

Consider “14 (GAAGCCCCACTTGCGGTCGTCAT; sugars from the 5' end m7 d9 m7, 5' {5'-OMe-dT}, 3' {3'-3'N}, backbone and T or U not given here; 2'-OMe blocks are phosphodiester, DNA gap is phosphorothioate) [compound 14]”, for which, in the data set with MMP2 mRNA, the mRNA knockout is >80%.

For “16 (GCTTTCTCTCGGTACTGGAAGACGT; antisense; sugars from the 5' end m7 d11 m7, 5' {5'-OMe-dT}, 3' {3'-3'N}, backbone and T or U not given here; 2'-OMe blocks are phosphodiester, DNA gap is phosphorothioate) [compound 16]”, the mRNA knockout in the data set on MMP9 mRNA is >80%.

Take “17 (AACCCATGAAGTTGCCTGAGCACTG; antisense; sugars from the 5' end m7 d11 m7, 5' {5'-OMe-dT}, 3' {3'-3'N}, backbone and T or U not given here; 2'-OMe blocks are phosphodiester, DNA gap is phosphorothioate) [compound 17]”: the mRNA knockout in the data set with mTyr mRNA is >90%.

Turning to “19 (ATCTGGTCGCCTCATTTGCTCAACT; antisense; sugars from the 5' end m7 d11 m7, 5' {5'-OMe-dT}, 3' {3'-3'N}, backbone and T or U not given here; 2'-OMe blocks are phosphodiester, DNA gap is phosphorothioate) [compound 19]”, the mRNA knockout with p110α mRNA is reported as >95%.

Turning to “21 (TGATGAAGAGATTCCCATGCCGTCG; antisense; sugars from the 5' end m7 d11 m7, 5' {5'-OMe-dT}, 3' {3'-3'N}, backbone and T or U not given here; 2'-OMe blocks are phosphodiester, DNA gap is phosphorothioate) [compound 21]”, in the data set on p110β mRNA, the mRNA knockout is given as >90%.

With “23 (CTGTGAGCAACAGCTGTCGTCGTCT; antisense; sugars from the 5' end m7 d11 m7, 5' {5'-OMe-dT}, 3' {3'-3'N}, backbone and T or U not given here; 2'-OMe blocks are phosphodiester, DNA gap is phosphorothioate) [compound 23]”, in the data set on PDK1 mRNA, the mRNA knockout was >90%.

Regarding “24 (GGCAGTCATTAGCAGGGTGATGGTG; antisense; sugars from the 5' end m7 d11 m7, 5' {5'-OMe-dT}, 3' {3'-3'N}, backbone and T or U not given here; 2'-OMe blocks are phosphodiester, DNA gap is phosphorothioate) [compound 24]”, the mRNA knockout in the data set with UPAR mRNA was >80%.
